Tests used:
field violet [1] = assay: Test D preemergence; type: in vivo, Viola arvensis
Description: (§1) Seeds of plant species selected from bluegrass (annual bluegrass, Poa annua), blackgrass (Alopecurus myosuroides), canarygrass (littleseed canarygrass, Phalaris minor), chickweed (common chickweed, Stellaria media), galium (catchweed bedstraw, Galium aparine), bromegrass, downy (downy bromegrass, Bromus tectorum), field poppy (Papaver rhoeas), field violet (Viola arvensis), green foxtail (Setaria viridis), deadnettle (henbit deadnettle, Lamium amplexicaule), Italian ryegrass (Lolium multiflorum), kochia (Kochia scoparia), lambsquarters (Chenopodium album), oilseed rape (Brassica napus), pigweed (Amaranthus retroflexus), chamomile (scentless chamomile, Matricaria inodora), Russian thistle (Salsola kali), speedwell (bird's-eye speedwell, Veronica persica), spring barley (Hordeum vulgare), spring wheat (Triticum aestivum), wild buckwheat (Polygonum convolvulus), wild mustard (Sinapis arvensis), wild oat (Avena fatua), wild radish (Raphanus raphanistrum), windgrass (Apera spica-venti), winter barley (Hordeum vulgare), and winter wheat (Triticum aestivum) were planted into a silt loam soil and treated preemergence with test chemicals formulated in a non-phytotoxic solvent mixture which included a surfactant.
(§2) At the same time, these species were planted in pots containing Redi-Earth® planting medium (Scotts Company, 14111 Scottslawn Road, Marysville, Ohio 43041) comprising spaghnum peat moss, vermiculite, wetting agent and starter nutrients and treated with postemergence applications of the test chemicals formulated in the same manner. Plants ranged in height from 2 to 18 cm (1- to 4-leaf stage). Treated plants and controls were maintained in a controlled growth environment for 7 to 21 days after which time all species were compared to controls and visually evaluated. Plant response ratings, summarized in Table D, are based on a scale of 0 to 100 where 0 is no effect and 100 is complete control. A dash (-) response means no test result.

windgrass = assay: Test D postemergence; type: in vivo, Apera spica-venti
Description: as §1, §2

green foxtail = assay: Test D postemergence; type: in vivo, Setaria viridis
Description: as §1, §2

deadnettle = assay: Test D preemergence; type: in vivo, Lamium amplexicaule
Description: as §1, §2

bluegrass [2] = assay: Test D preemergence; type: in vivo, Poa annua
Description: as §1, §2

bromegrass, downy = assay: Test D preemergence; type: in vivo, Bromus tectorum
Description: as §1, §2

wild radish = assay: Test D preemergence; type: in vivo, Raphanus raphanistrum
Description: as §1, §2

bluegrass [3] = assay: Test D postemergence; type: in vivo, Poa annua
Description: as §1, §2

wild mustard = assay: Test D postemergence; type: in vivo, Sinapis arvensis
Description: as §1, §2

field violet [4] = assay: Test D postemergence; type: in vivo, Viola arvensis
Description: as §1, §2

kochia = assay: Test D postemergence; type: in vivo, Kochia scoparia
Description: as §1, §2

[5] = 16 g ai/ha, scale 0 (no effect) to 100 (complete control)
[6] = 31 g ai/ha, scale 0 to 100 (0 no effect, 100 complete control)
[7] = 62 g ai/ha, scale 0 to 100 (0 no effect, 100 complete control)
[8] = 125 g ai/ha, scale 0 to 100 (0 no effect, 100 complete control)
[9] = 250 g ai/ha, scale 0 to 100 (0 no effect, 100 complete control)

Clc1cnc(Oc2ccccc2-n2cc(Cl)cn2)nc1 [Compound 3]
30: Plant response rating, Deadnettle (deadnettle; [5]) | Plant response rating, Deadnettle (deadnettle; 31 g ai/ha, scale 0-100)
5: Plant response rating, Field Violet (field violet [4]; [6]) | Plant response rating, Field Violet (field violet [4]; [7]) | Plant response rating, Field Violet (field violet [4]; [8]) | Plant response rating, Kochia (kochia; [6]) | Plant response rating, Kochia (kochia; [7])
90: Plant response rating, Radish, Wild (wild radish; 125 g ai/ha, scale 0-100)
50: Plant response rating, Deadnettle (deadnettle; 250 g ai/ha, scale 0-100)
20: Plant response rating, Bluegrass (bluegrass [2]; 125 g ai/ha, scale 0-100) | Plant response rating, Radish, Wild (wild radish; 31 g ai/ha, scale 0 (no effect) to 100 (complete control)) | Plant response rating, Mustard, Wild (wild mustard; [6]) | Plant response rating, Field Violet (field violet [4]; 16 g ai/ha, scale 0-100) | Plant response rating, Field Violet (field violet [4]; [9]) | Plant response rating, Kochia (kochia; 16 g ai/ha, scale 0-100)
10: Plant response rating, Windgrass (windgrass; [9]) | Plant response rating, Foxtail, Green (green foxtail; 16 g ai/ha, scale 0-100) | Plant response rating, Foxtail, Green (green foxtail; [9]) | Plant response rating, Bluegrass (bluegrass [3]; Postemergence, 250 g ai/ha, scale 0 to 100 (0 no effect, 100 complete control))
35: Plant response rating, Mustard, Wild (wild mustard; [7]) | Plant response rating, Mustard, Wild (wild mustard; [8])
55: Plant response rating, Kochia (kochia; [9])
70: Plant response rating, Windgrass (windgrass; 16 g ai/ha, scale 0-100)
25: Plant response rating, Kochia (kochia; [8])
40: Plant response rating, Field Violet (field violet [1]; [5]) | Plant response rating, Deadnettle (deadnettle; 62 g ai/ha, scale 0-100) | Plant response rating, Deadnettle (deadnettle; 125 g ai/ha, scale 0-100) | Plant response rating, Bluegrass (bluegrass [2]; 250 g ai/ha, scale 0-100) | Plant response rating, Bluegrass (bluegrass [3]; postemergence, 16 g ai/ha, scale 0 to 100, 0 no effect, 100 complete control)
0: Plant response rating, Windgrass (windgrass; [6]) | Plant response rating, Windgrass (windgrass; [7]) | Plant response rating, Windgrass (windgrass; [8]) | Plant response rating, Foxtail, Green (green foxtail; [6]) | Plant response rating, Foxtail, Green (green foxtail; [7]) | Plant response rating, Foxtail, Green (green foxtail; [8]) | Plant response rating, Bluegrass (bluegrass [2]; [5]) | Plant response rating, Bluegrass (bluegrass [2]; 31 g ai/ha, scale 0-100) | Plant response rating, Bluegrass (bluegrass [2]; 62 g ai/ha, scale 0-100) | Plant response rating, Bromegrass, Downy (bromegrass, downy; [5]) | Plant response rating, Bromegrass, Downy (bromegrass, downy; 31 g ai/ha, scale 0-100) | Plant response rating, Bromegrass, Downy (bromegrass, downy; 62 g ai/ha, scale 0-100) | Plant response rating, Bromegrass, Downy (bromegrass, downy; 125 g ai/ha, scale 0-100) | Plant response rating, Bromegrass, Downy (bromegrass, downy; 250 g ai/ha, scale 0-100) | Plant response rating, Radish, Wild (wild radish; [5]) | Plant response rating, Bluegrass (bluegrass [3]; Postemergence, 62 g ai/ha, scale 0 to 100 (0 no effect, 100 complete control)) | Plant response rating, Bluegrass (bluegrass [3]; Postemergence, 31 g ai/ha, scale 0 to 100 (0 no effect, 100 complete control)) | Plant response rating, Bluegrass (bluegrass [3]; Postemergence, 125 g ai/ha, scale 0 to 100 (0 no effect, 100 complete control))
75: Plant response rating, Mustard, Wild (wild mustard; 16 g ai/ha, scale 0-100)
95: Plant response rating, Radish, Wild (wild radish; 250 g ai/ha, scale 0-100)
60: Plant response rating, Radish, Wild (wild radish; 62 g ai/ha, scale 0-100)
80: Plant response rating, Field Violet (field violet [1]; 31 g ai/ha, scale 0-100) | Plant response rating, Field Violet (field violet [1]; 62 g ai/ha, scale 0-100)
85: Plant response rating, Field Violet (field violet [1]; 125 g ai/ha, scale 0-100) | Plant response rating, Field Violet (field violet [1]; 250 g ai/ha, scale 0-100) | Plant response rating, Mustard, Wild (wild mustard; [9])

From patent US9695155B2, “Herbicidal substituted pyrimidinyloxy benzene compounds” (E. I. DU PONT DE NEMOURS AND COMPANY, priority 2013, dated 2017)
